Test results reported in ChEMBL document CHEMBL4130453, “Discovery of an Isothiazole-Based Phenylpropanoic Acid GPR120 Agonist as a Development Candidate for Type 2 Diabetes” (ACS Med Chem Lett, 2017).
Values after ≈ are worked out from the molar mass of the structure shown.

Legend:
hERG (KCNH2) [1] = target: T1, hERG (KCNH2) (Homo sapiens, UniProt Q12809); test: Inhibition of human ERG at 10 uM by patch express assay relative to control
[2] = Oral bioavailability in SPF Sprague-Dawley rat at 10 mg/kg by LC-MS/MS analysis; type: ADME, organism-based; details: in vivo
[3] = target: Free fatty acid receptor 1 (Homo sapiens, UniProt O14842); test: Agonist activity at human GPR40 by calcium flux assay; type: functional
Sequence of Free fatty acid receptor 1 (O14842 whole entry): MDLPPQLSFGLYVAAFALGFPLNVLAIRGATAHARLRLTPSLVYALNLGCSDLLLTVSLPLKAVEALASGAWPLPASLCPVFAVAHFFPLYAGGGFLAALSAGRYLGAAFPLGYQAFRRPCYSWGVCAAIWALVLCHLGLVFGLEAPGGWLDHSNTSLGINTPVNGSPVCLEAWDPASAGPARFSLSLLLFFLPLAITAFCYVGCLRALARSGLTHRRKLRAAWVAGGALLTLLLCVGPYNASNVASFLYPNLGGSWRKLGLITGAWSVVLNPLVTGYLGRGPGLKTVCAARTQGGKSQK

[4] = Metabolic stability in mouse liver microsomes assessed as parent compound remaining measured at 10 mins; type: ADME, microsome; details: liver microsomes, read-out: Stability
[5] = Apparent permeability from apical to basolateral side in MDCK cells; type: ADME, cell-based, Canis lupus familiaris; details: dog
[6] = Efflux ratio of apparent permeability from basolateral to apical side over apical to basolateral side in MDCK cells; type: ADME, cell-based, Canis lupus familiaris; details: dog
[7] = target: T2, Free fatty acid receptor 4 (Mus musculus, UniProt Q7TMA4); test: Agonist activity at mouse GPR120 by calcium flux assay; type: functional
T2 sequence (Q7TMA4 whole entry): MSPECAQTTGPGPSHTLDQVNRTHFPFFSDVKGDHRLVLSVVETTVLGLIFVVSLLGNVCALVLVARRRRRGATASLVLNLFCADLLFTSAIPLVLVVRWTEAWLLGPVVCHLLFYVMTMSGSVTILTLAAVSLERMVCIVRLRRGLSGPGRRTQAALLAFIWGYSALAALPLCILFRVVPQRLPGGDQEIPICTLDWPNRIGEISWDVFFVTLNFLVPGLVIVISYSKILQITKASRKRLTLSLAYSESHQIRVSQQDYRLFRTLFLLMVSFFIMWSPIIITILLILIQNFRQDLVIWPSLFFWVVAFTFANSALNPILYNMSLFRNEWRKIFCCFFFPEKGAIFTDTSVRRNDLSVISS

Mus musculus [8] = test: Antidiabetic activity in diet-induced obese C57BL/6 mouse assessed as reduction in plasma glucose delta AUC level at 1 mg/kg, po administered 30 mins prior to glucose challenge measured 90 mins post glucose challenge by OGTT relative to control; type: functional; set-up: scale not given: the % may be the effect or the level left
hERG (KCNH2) [9] = target: T1, hERG (KCNH2); test: Inhibition of human ERG at 30 uM by patch express assay relative to control
Mus musculus [10] = test: Antidiabetic activity in diet-induced obese C57BL/6 mouse assessed as reduction in plasma glucose delta AUC level at 0.3 mg/kg, po administered 30 mins prior to glucose challenge measured 90 mins post glucose challenge by OGTT relative to control; type: functional; set-up: scale not given: the % may be the effect or the level left
[11] = Inhibition of CYP450 (unknown origin) measured up to 10 uM; type: ADME; details: human
[12] = AUClast in SPF Sprague-Dawley rat at 10 mg/kg, po by LC-MS/MS analysis; type: ADME, organism-based; set-up: dose 10 mg/kg, time 0 - last, route oral; details: in vivo
[13] = Cmax in SPF Sprague-Dawley rat at 10 mg/kg, po by LC-MS/MS analysis; type: ADME, organism-based; set-up: dose 10 mg/kg, route oral; details: in vivo
Mus musculus [14] = test: Antidiabetic activity in diet-induced obese C57BL/6 mouse harboring wild type GPR120 assessed as reduction in plasma glucose delta AUC level at 60 mg/kg, po qd administered 30 mins prior to glucose challenge measured 90 mins post glucose challenge for 3 weeks; type: functional; set-up: scale not given: the % may be the effect or the level left
[15] = Half life in SPF Sprague-Dawley rat at 10 mg/kg, po by LC-MS/MS analysis; type: ADME, organism-based; details: in vivo
[16] = Ratio of drug uptake in DIO C57bl/6J mouse adipose tissue to plasma at 20 mg/kg, po administered via gavage; type: ADME, organism-based; details: adipose tissue and plasma
[17] = Metabolic stability in human liver microsomes assessed as parent compound remaining measured at 10 mins; type: ADME, microsome; details: read-out: Stability
hERG (KCNH2) [18] = target: T1, hERG (KCNH2); test: Inhibition of human ERG at 3 uM by patch express assay relative to control
Mus musculus [19] = test: Antidiabetic activity in diet-induced obese C57BL/6 mouse assessed as reduction in plasma glucose delta AUC level at 0.1 mg/kg, po administered 30 mins prior to glucose challenge measured 90 mins post glucose challenge by OGTT relative to control; type: functional; set-up: scale not given: the % may be the effect or the level left
[20] = AUClast in DIO C57bl/6J mouse at 20 mg/kg, po administered via gavage by LC-MS/MS analysis; type: ADME, organism-based; set-up: dose 20 mg/kg, route oral, time 0 - last; details: in vivo
[21] = Kinetic solubility of the compound in PBS; type: physicochemical; details: read-out: Kinetic_solubility
Mus musculus [22] = test: Antidiabetic activity in GPR120 knockout diet-induced obese C57BL/6 mouse assessed as reduction in plasma glucose delta AUC level at 60 mg/kg, po qd administered 30 mins prior to glucose challenge measured 90 mins post glucose challenge for 3 weeks; type: functional; set-up: scale not given: the % may be the effect or the level left
Mus musculus [23] = test: Antidiabetic activity in diet-induced obese C57BL/6 mouse assessed as reduction in plasma glucose delta AUC level administered orally 30 mins prior to glucose challenge measured 90 mins post glucose challenge by OGTT; type: functional, organism-based
Mus musculus [24] = test: Antidiabetic activity in diet-induced obese C57BL/6 mouse assessed as reduction in plasma glucose delta AUC level at 3 mg/kg, po administered 30 mins prior to glucose challenge measured 90 mins post glucose challenge by OGTT relative to control; type: functional; set-up: scale not given: the % may be the effect or the level left
[25] = Cmax in DIO C57bl/6J mouse at 20 mg/kg, po administered via gavage by LC-MS/MS analysis; type: ADME, organism-based; set-up: dose 20 mg/kg, route oral; details: in vivo
[26] = Half life in DIO C57bl/6J mouse at 20 mg/kg, po administered via gavage by LC-MS/MS analysis; type: ADME, organism-based; details: in vivo
[27] = target: Free fatty acid receptor 4 (Homo sapiens, UniProt Q5NUL3); test: Agonist activity at human GPR120 short splice variant expressed in HEK293 cells assessed as increase in intracellular calcium flux incubated for 30 mins measured for 300 secs at 1 sec interval by Fluo-4 NW dye based FLIPR assay; type: functional, cell-based
Sequence of Free fatty acid receptor 4 (Homo sapiens, UniProt Q5NUL3) (Q5NUL3 whole entry, looked up, stated change not applied, canonical isoform): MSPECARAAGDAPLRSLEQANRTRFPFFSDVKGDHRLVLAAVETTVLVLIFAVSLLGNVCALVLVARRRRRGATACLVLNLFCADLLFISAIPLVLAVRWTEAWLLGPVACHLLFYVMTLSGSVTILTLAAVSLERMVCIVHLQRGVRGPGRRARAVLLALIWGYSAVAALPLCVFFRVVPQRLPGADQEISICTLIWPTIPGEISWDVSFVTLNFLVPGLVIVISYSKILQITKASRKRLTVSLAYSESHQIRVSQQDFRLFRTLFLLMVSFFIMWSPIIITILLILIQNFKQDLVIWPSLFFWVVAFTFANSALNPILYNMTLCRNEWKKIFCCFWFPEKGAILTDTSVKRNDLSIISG

[28] = target: T3, PXR (nuclear receptor subfamily 1 group I member 2) (Homo sapiens, UniProt O75469); test: Activation of PXR (unknown origin) at 5 uM relative to control; details: read-out: Activity
T3 sequence (O75469 whole entry): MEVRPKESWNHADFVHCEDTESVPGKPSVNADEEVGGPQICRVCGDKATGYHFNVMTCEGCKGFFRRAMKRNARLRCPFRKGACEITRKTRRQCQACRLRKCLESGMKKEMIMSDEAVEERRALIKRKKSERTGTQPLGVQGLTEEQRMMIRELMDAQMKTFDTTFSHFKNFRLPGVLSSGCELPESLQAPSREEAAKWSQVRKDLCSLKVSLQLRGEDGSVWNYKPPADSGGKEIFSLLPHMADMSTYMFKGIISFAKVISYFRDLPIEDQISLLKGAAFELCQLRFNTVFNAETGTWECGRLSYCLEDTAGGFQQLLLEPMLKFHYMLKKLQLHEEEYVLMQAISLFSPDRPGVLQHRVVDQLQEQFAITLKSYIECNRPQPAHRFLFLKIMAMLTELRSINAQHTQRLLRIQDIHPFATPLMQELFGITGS

[29] = Protein binding in mouse plasma; type: ADME, cell-free; details: read-out: PPB (converted)
[30] = Protein binding in rat plasma; type: ADME, cell-free; details: read-out: PPB (converted)
[31] = Protein binding in human plasma; type: ADME, cell-free; details: read-out: PPB (converted)
[32] = target: Voltage-gated inwardly rectifying potassium channel KCNH2 (Homo sapiens, UniProt Q12809); test: Inhibition of human ERG
Sequence of Voltage-gated inwardly rectifying potassium channel KCNH2 (Q12809 whole entry): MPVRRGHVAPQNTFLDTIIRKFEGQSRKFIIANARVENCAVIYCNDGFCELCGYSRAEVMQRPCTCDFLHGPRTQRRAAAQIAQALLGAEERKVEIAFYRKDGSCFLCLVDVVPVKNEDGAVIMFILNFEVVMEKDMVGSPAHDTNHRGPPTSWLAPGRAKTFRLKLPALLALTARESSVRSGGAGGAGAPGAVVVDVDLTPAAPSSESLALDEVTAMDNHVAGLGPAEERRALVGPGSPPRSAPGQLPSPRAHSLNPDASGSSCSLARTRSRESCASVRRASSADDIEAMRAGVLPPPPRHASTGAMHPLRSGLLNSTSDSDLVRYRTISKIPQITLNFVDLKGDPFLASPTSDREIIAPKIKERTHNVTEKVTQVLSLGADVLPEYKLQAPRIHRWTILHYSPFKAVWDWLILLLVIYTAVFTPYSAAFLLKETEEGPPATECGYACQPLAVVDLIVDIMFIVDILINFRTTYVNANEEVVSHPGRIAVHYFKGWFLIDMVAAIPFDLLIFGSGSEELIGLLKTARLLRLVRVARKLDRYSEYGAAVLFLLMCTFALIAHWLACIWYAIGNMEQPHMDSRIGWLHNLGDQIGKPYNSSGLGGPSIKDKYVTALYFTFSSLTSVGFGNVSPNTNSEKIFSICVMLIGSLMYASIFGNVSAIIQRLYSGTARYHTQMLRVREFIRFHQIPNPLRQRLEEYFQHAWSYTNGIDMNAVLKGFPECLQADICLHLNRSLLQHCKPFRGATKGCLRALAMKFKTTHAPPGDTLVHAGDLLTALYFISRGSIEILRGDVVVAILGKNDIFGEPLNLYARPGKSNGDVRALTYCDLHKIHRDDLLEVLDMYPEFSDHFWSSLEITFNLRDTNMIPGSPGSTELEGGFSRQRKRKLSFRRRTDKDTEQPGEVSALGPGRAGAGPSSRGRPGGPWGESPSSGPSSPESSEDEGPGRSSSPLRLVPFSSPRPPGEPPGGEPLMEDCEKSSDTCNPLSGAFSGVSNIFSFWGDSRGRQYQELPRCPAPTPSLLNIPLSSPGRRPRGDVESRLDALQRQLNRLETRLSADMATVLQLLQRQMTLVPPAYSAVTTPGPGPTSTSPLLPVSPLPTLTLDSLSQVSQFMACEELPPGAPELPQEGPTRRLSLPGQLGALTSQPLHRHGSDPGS

[33] = Metabolic stability in rat liver microsomes assessed as parent compound remaining measured at 10 mins; type: ADME, microsome; details: liver microsomes, read-out: Stability

T1 sequence (Q12809 whole entry): as above

O=C(O)CCc1cc(F)c(OCc2c(-c3ccc(Cl)cc3F)nsc2C(F)(F)F)c(F)c1
inhibition at 10 µM (hERG (KCNH2) [1]): 11.2% | bioavailability [2]: 57.2% | EC50 [3]: > 5000 nM | remaining at 10 min [4]: 87 to 100% | Papp A→B [5]: 17.5 ×10⁻⁶ cm/s | efflux ratio [6]: 1.05 | EC50 [7]: 77 nM | Activity (Mus musculus [8]): 61% | inhibition at 30 µM (hERG (KCNH2) [9]): 12.5% | Activity (Mus musculus [10]): 34% | inhibition (INH) [11]: Not Active | AUC(0-t) [12]: 4470 ng·h/mL | Cmax [13]: 3560 ng/mL | Activity (Mus musculus [14]): 137% | half-life [15]: 0.98 h | Kp [16]: 0.08 | remaining at 10 min [17]: 87 to 100% | inhibition at 3 µM (hERG (KCNH2) [18]): 5.9% | Activity (Mus musculus [19]): 3% | AUC(0-t) [20]: 46800 ng·h/mL | solubility kinetic [21]: 38.9 µM (≈ 19.3 µg/mL) | Activity (Mus musculus [22]): 2% | Activity (Mus musculus [23]): Dose-dependent effect | Activity (Mus musculus [24]): 83% | Cmax [25]: 9270 ng/mL | half-life [26]: 5.23 h | EC50 [27]: 42 nM | activity at 5 µM [28]: 25.4% | fraction unbound [29]: 0.0032 | fraction unbound [30]: 0.0019 | fraction unbound [31]: 0.0013 | IC50 [32]: > 50000 nM | remaining at 10 min [33]: 87 to 100%
